Experimental data published in the supplement of paper PMC4977894.
± gives the standard deviation of the averaged measurements.

Assays:
[1] = tested on: Homo sapiens (human subject panel, olfactory perception); assay: perceived odor familiarity rating (rating 0-100); higher = more familiar
Method: (§1)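 Human olfactory psychophysics. 55 healthy subjects (after excluding 6 low performers) sniffed 1 mL of each odorant diluted in paraffin oil (vials, two dilutions per molecule, 20 molecules presented twice). Each subject rated intensity, pleasantness and familiarity on a 0-100 slider, starting at 50 and required to move. Ratings were given only when the subject reported detecting a smell; per-subject ratings are averaged over subjects.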

[2] = tested on: Homo sapiens (human subject panel, olfactory perception); assay: perceived odor intensity rating (rating 0-100); higher = stronger perceived smell
Method: as §1

[3] = tested on: Homo sapiens (human subject panel, olfactory perception); assay: perceived odor pleasantness rating (rating 0-100); higher = more pleasant
Method: as §1

[4] = odor dilution in paraffin oil: 1/1,000
[5] = odor dilution in paraffin oil: 1/100,000
[6] = odor dilution in paraffin oil: 1/10
[7] = odor dilution in paraffin oil: 1/10,000,000

Row | SMILES | perceived odor familiarity rating [1, 4] | perceived odor familiarity rating [1, 5] | perceived odor intensity rating [2, 4] | perceived odor intensity rating [2, 5] | perceived odor pleasantness rating [3, 4] | perceived odor pleasantness rating [3, 5] | perceived odor familiarity rating [1, 6] | perceived odor intensity rating [2, 6] | perceived odor pleasantness rating [3, 6] | perceived odor familiarity rating [1, 7] | perceived odor intensity rating [2, 7] | perceived odor pleasantness rating [3, 7]
1 | OCCCCCc1ccccc1 [5-Phenyl-1-pentanol] | 49.2 ± 29 | 34.5 ± 32 | 53.4 ± 30 | 17.2 ± 22 | 53.6 ± 22 | 56.8 ± 23 | – | – | – | – | – | –
2 | CC(=O)CC/C=C(\C)CCC=C(C)C [6,10-Dimethyl-5,9-undecadien-2-one] | 43.6 ± 26 | 40.3 ± 30 | 42.1 ± 30 | 13 ± 12 | 41.8 ± 23 | 53 ± 21 | – | – | – | – | – | –
3 | CC(=O)c1cc2c(cc1C)C(C)(C)C(C)CC2(C)C (stereo unspecified) [6-Acetyl-1,1,2,4,4,7-Hexamethyltetralin] | 49.1 ± 31 | – | 29.8 ± 28 | – | 67.7 ± 21 | – | 57.3 ± 30 | 51.7 ± 28 | 67.4 ± 24 | – | – | –
4 | CC(=O)CCC=C(C)C [6-Methyl-5-hepten-2-one] | 51.9 ± 31 | 31.9 ± 29 | 70.7 ± 23 | 22.4 ± 25 | 48.6 ± 30 | 52.6 ± 23 | – | – | – | – | – | –
5 | Cc1ccc2oc(=O)ccc2c1 [6-Methylcoumarin] | 55.2 ± 30 | – | 62.9 ± 27 | – | 53.9 ± 28 | – | 48.9 ± 32 | 80.1 ± 19 | 40.8 ± 32 | – | – | –
6 | CCCCCC(=O)CCCCC [6-Undecanone] | 43.3 ± 31 | 32.9 ± 32 | 43.3 ± 30 | 8.22 ± 16 | 49.5 ± 27 | 52.7 ± 29 | – | – | – | – | – | –
7 | Cc1ccc2ncccc2c1 [6-methyl quinoline] | 44 ± 30 | 44.3 ± 31 | 68.2 ± 27 | 50.9 ± 30 | 36.7 ± 27 | 60.4 ± 23 | – | – | – | – | – | –
8 | COc1ccc2ccc(=O)oc2c1 [7-Methoxycoumarin] | 47.2 ± 29 | – | 42.3 ± 24 | – | 59.3 ± 25 | – | 52 ± 30 | 62 ± 26 | 62 ± 25 | – | – | –
9 | CC1(C)C2CC=C(C=O)C1C2 [(1R)-(-)-Myrtenal] | – | 48.3 ± 31 | – | 62.4 ± 26 | – | 40.3 ± 25 | – | – | – | 40.7 ± 33 | 33.8 ± 31 | 50.1 ± 24
10 | CC1CC[C@H](C(C)C)[C@@H](O)C1 (stereo partly specified) [( + )-menthol] | 51.8 ± 29 | – | 51 ± 31 | – | 52 ± 24 | – | 73.7 ± 26 | 83.4 ± 14 | 55.3 ± 28 | – | – | –
11 | C=C(C)[C@@H]1CC[C@@H](C)C[C@H]1O [(-)-Isopulegol] | 37.8 ± 32 | – | 24.4 ± 27 | – | 45.1 ± 24 | – | 73.2 ± 29 | 81.1 ± 17 | 56.9 ± 27 | – | – | –
12 | CC[C@H](C)O [(S)-( + )-2-butanol] | 33.1 ± 30 | 40.9 ± 30 | 16.4 ± 22 | 24.7 ± 27 | 50.2 ± 22 | 50.7 ± 21 | – | – | – | – | – | –
13 | CCOC(C)OCC [Acetal] | 44.7 ± 28 | 35.2 ± 28 | 48.7 ± 34 | 43.1 ± 33 | 42.5 ± 24 | 47.9 ± 22 | – | – | – | – | – | –
14 | COc1ccc(C(C)=O)cc1 [Acetanisole] | 50 ± 26 | – | 44.1 ± 28 | – | 68.8 ± 19 | – | 56.5 ± 30 | 82.2 ± 16 | 53.3 ± 28 | – | – | –
15 | COc1cc(C(C)=O)ccc1O [Acetovanillone] | 41 ± 30 | – | 35 ± 32 | – | 55.1 ± 21 | – | 47.6 ± 29 | 64 ± 28 | 45.7 ± 25 | – | – | –
16 | O=C(O)CCCCC(=O)O [Adipic acid] | 34 ± 29 | – | 14 ± 16 | – | 38.5 ± 18 | – | 43.5 ± 27 | 35.7 ± 28 | 52.7 ± 24 | – | – | –
17 | C=CCOC(=O)C(CC)CC [Allyl 2-ethylbutyrate] | 51.6 ± 29 | 44.1 ± 30 | 68.5 ± 28 | 33.9 ± 28 | 51.5 ± 28 | 67 ± 19 | – | – | – | – | – | –
18 | C=CCOC(=O)c1ccco1 [Allyl 2-furoate] | 40.9 ± 29 | 39.9 ± 27 | 60.6 ± 29 | 27 ± 28 | 31.9 ± 23 | 41.8 ± 21 | – | – | – | – | – | –
19 | C=CCSCC=C [Allyl Sulfide] | – | 40.8 ± 30 | – | 43.2 ± 35 | – | 37.2 ± 25 | – | – | – | 35.4 ± 25 | 27.3 ± 24 | 42.7 ± 23
20 | C=CCOC(=O)c1ccccc1N [Allyl anthranilate] | 45.9 ± 29 | 33.4 ± 26 | 55.1 ± 31 | 16.4 ± 19 | 52 ± 27 | 50.7 ± 25 | – | – | – | – | – | –
21 | C=CCOC(=O)CCC [Allyl butyrate] | 45.2 ± 31 | 49.2 ± 28 | 78.6 ± 20 | 54.3 ± 31 | 23.7 ± 24 | 33.2 ± 24 | – | – | – | – | – | –
22 | C=CCOC(=O)/C=C/c1ccccc1 [Allyl cinnamate] | 40.5 ± 28 | 44 ± 27 | 57 ± 32 | 46.8 ± 30 | 52.4 ± 28 | 52.4 ± 24 | – | – | – | – | – | –
23 | C=CCOC(=O)CCC1CCCCC1 [Allyl cyclohexanepropionate] | 58.7 ± 29 | 32.5 ± 27 | 57.9 ± 25 | 30.6 ± 30 | 60.9 ± 23 | 54.7 ± 24 | – | – | – | – | – | –
24 | C=CCOC(=O)CCCCCC [Allyl heptanoate] | 57.9 ± 31 | 37.8 ± 29 | 53.9 ± 31 | 22.2 ± 26 | 73.7 ± 20 | 55.4 ± 23 | – | – | – | – | – | –
25 | C=CCOC(=O)Cc1ccccc1 [Allyl phenylacetate] | – | 44 ± 25 | – | 33.8 ± 29 | – | 33 ± 27 | – | – | – | 29.4 ± 16 | 25.7 ± 25 | 49.8 ± 28
26 | C=CCOC(=O)/C(C)=C/C [Allyl tiglate] | 49.6 ± 31 | 46.1 ± 32 | 71.9 ± 24 | 48 ± 29 | 41.1 ± 28 | 44.3 ± 23 | – | – | – | – | – | –
